Results: article PMC10877564, “Activity of Gut-Derived Nisin-like Lantibiotics against Human Gut Pathogens and Commensals” (ACS Chemical Biology, 2024)
Positions of bridges follow the written chain, without caps; N, C: chain ends. Non-standard residues stand in square brackets, D forms with d. No end group written: not given here. Abu = CC[C@H](N)C(=O)O; Dhb = C/C=C(\N)C(=O)O; Dha = C=C(N)C(=O)O

Columns and labels:
[1] = tested on: Coprococcus eutactus MSK.18.32; experiment: MIC assay, anaerobic broth dilution; assay type: cell-based; conditions: Coprococcus eutactus MSK.18.32; anaerobic, BHIS, 37 °C, 48 h, 3-fold serial dilution
Description: (§1) Antibiotic treatment may result in collateral damage to commensal bacteria in the human microbiome, leading to dysbiosis and susceptibility to various diseases.[44] How lantibiotics impact Gram-positive commensals from the human gut has remained unclear. Therefore, we performed antimicrobial activity tests of these lantibiotics against selected Gram-positive human gut commensals, most of which belong to the Lachnospiraceae family, one of the most abundant bacterial families in the human gut.[27] In general, human gut commensals were more susceptible to the set of investigated lantibiotics compared to pathogens (Figure 3).
(§2) Elution Buffer (4 M guanidine hydrochloride, 20 mM Tris HCl, pH 7.5 at 25 °C, 100 mM NaCl, 1 M imidazole). Peptides eluted from the Ni resin were concentrated and desalted using 3 kDa Amicon filters (Millipore). For leader peptide removal, the peptide (1:20 trypsin to peptide) was incubated with the trypsin protease in 50 mM Tris-HCl, pH 8 overnight at 37 °C. Lastly, the core peptides were further purified with HPLC using an Agilent 1200 instrument (Agilent) as specified in general methods. About 1.5 mg recombinant peptide was obtained after HPLC purification per […]
(§3) All MIC assays were performed under anaerobic condition. […] Lantibiotics were dissolved in DPBS, and concentrations were determined by BCA assay (Pierce) according to the manufacturer’s protocol. […]

[2] = Liposome permeabilization assay, liposomes without lipid II; assay type: biochemical; conditions: 375 nM lantibiotic; DOPC, 50 µM phospholipid; pyranine fluorescence, 30 min; three replicates; Figure S7
Description: (§4) To further investigate the mechanisms of action of these nisin-like lantibiotics, we performed liposome permeabilization assays using liposomes with or without lipid II (Figure S7).
(§5) Liposome Permeabilization Assay
(§6) To prepare pyranine encapsulated liposomes, DOPC (25 mg/mL in CHCl3, purchased from Avanti) was deposited into a vial and mixed with lipid II (dissolved in 2:1 CHCl3: MeOH, prepared chemoenzymatically).6 The solvent was removed using a stream of N2 leaving a thin film. Residual solvent was removed by storing it overnight in a vacuum desiccator. The film was rehydrated in buffer (5 mM Tricine, 5 mM MES, 5 mM NaCl, 1 mM pyranine pH = 6.0) and suspended with vortexing. The suspension was subjected to freeze-thaw three times before extrusion through a […] polycarbonate filter (21 passes). Excess pyranine was removed by passing the liposome solution through a Sephadex G-50 column previously equilibrated with buffer (5 mM Tricine, 5 mM MES, 5 mM NaCl, pH = 6.0). The eluted liposome solution containing the highest concentration of encapsulated pyranine (as determined visually with a UV lamp) was immediately placed on ice. Phospholipid concentration was determined by NMR as described previously.7 To measure liposome permeabilization, to a 96 well black polystyrene plate was added buffer (5 mM Tricine, 5 mM MES, 5 mM NaCl, pH = 8.0; 97 µL) and liposome solution (3 µL; 50 µM phospholipid concentration during assay). The wells were allowed to equilibrate for 8 min at room temperature then antibiotic was added. The antibiotic concentration in each well was 375 nM.
(§7) Pyranine fluorescence was monitored for 30 min then Triton X-100 was added to a final concentration of 0.1% and pyranine fluorescence was monitored for an additional 5 min. The pyranine fluorescence signal was max-min normalized. […]
(§8) Fig. S7 Liposome permeabilization assays of nisin-like lantibiotics. (A) Scheme of liposome […]
(§9) low fluorescence. Fluorescence increases upon liposome permeabilization and pH increase . (B) Fraction of liposomes permeabilized by lantibiotics (375 nM). Liposomes were composed of DOPC with or without 0.1 mol% lipid II. Error bars represent the standard of deviation of three […]
(§10) (1 picture or pasted object on this page, not shown here)

E. ramosum MSK.23.96 = experiment: MIC assay, anaerobic broth dilution; assay type: cell-based, Erysipeloclostridium ramosum; conditions: BHIS, 37 °C, 48 h, 3-fold serial dilution
Description: as §1, §2, §3

[3] = Liposome permeabilization assay, liposomes with lipid II; assay type: biochemical; conditions: 375 nM lantibiotic; DOPC with 0.1 mol% lipid II, 50 µM phospholipid; pyranine fluorescence, 30 min, room temperature; three replicates; Figure S7B
Description: as §4, §5, §6, §7, §8, §9, §10

[4] = tested on: selected Gram-positive human gut commensals; experiment: MIC assay against the panel of Gram-positive human gut commensals; assay type: cell-based; conditions: commensal panel, Figure 3F-M; anaerobic
Description: as §1, §2, §3

nisin A (I[Dhb]AI[Dha]LC[Abu]PGCK[Abu]GALMGCNMK[Abu]A[Abu]CHCSIHV[Dha]K; thioether 8-11, 13-19, 23-26, 25-28, 3-7; UniProt P13068 24-57, looked up) [prototypical class I lantibiotic produced by L. lactis, food preservative; commercial nisin A]
nisin A MIC [1]: 0.0110 µM
permeabilization of liposomes without lipid II compared to liposomes with lipid II (in words) [2]: decreased permeabilization activities
nisin A MIC (E. ramosum MSK.23.96): 0.889 µM
permeabilization of lipid II-containing liposomes (in words) [3]: strongly induced permeabilization
antimicrobial activity against human gut commensals (ranking in words) [4]: generally more effective in growth inhibition
